# Data taken from patent US20210309666A1, “SMALL MOLECULE MDM2 PROTEIN DEGRADERS” (THE REGENTS OF THE UNIVERSITY OF MICHIGAN, priority 2018, published 2021).
# Like-named read-outs stand apart in the source and are kept apart here.
# What was measured:
# [1] = Separate PK experiment, plasma concentrations after oral dose; type: in vivo; details: mouse, 50 mg/kg, mice
# Excerpt: In a separate PK experiment, the plasma concentrations of Cpd.
# 22RV1 cells = assay: Cell growth inhibition, 4-day proliferation assay (WST-8); type: cell-based; details: Homo sapiens, 96 h; 22RV1, prostate carcinoma, 4 days
# Experimental: (§1) The effect of representative Compounds of the Disclosure on cell viability was determined in a 4-day proliferation assay. Cells were maintained in the appropriate culture medium with 10% FBS at 37° C. and an atmosphere of 5% CO2. Also, the effect of a MDM2 inhibitor (Cpd. A; see Compound Example No. 22 of U.S. Pat. No. 8,629,141) and a known MDM2 degrader (Cpd. D, see Cpd. No. 175 of WO 2017/0176957) on cell viability in various cell lines is also included in Table 5. Cpd. […] A and D. The structure of Cpd. A is:
# (§2) Cells were seeded in 96-well flat bottom (Corning COSTAR, Corning, N.Y., cat #3595) at a density of 2,000-3,000 cells/well in 100 μL of culture medium. Compounds were serially diluted in the appropriate medium, and 100 μL of the diluted compounds were added to the appropriate wells of the cell plate. After the addition of compounds, the cells were incubated at 37° C. in an atmosphere of 5% CO2 for 4 days. Cell viability was determined using the WST (2-(2-methoxy-4-nitrophenyl)-3-(4-nitrophenyl)-5-(2,4-disulfophenyl)-2H-tetrazolium, monosodium salt) Cell Counting-8 Kit (Dojindo Molecular Technologies, Inc., Rockville, Md.) according to the manufacturers' instructions.
# (§3) WST-8 reagent was added to each well at a final concentration of 10% (v/v), and then the plates were incubated at 37° C. for 1-2 hours for color development. The absorbance was measured at 450 nm using a SPECTRAmax PLUS plate reader (Molecular Devices, Sunnyvale, Calif.). The readings were normalized to the DMSO-treated cells and the half maximal inhibitory concentration (IC50) was calculated by nonlinear regression (four parameters sigmoid fitted with variable slope, least squares fit, and no constraint) analysis using the GraphPad Prism 5 software (GraphPad Software, La Jolla, Calif.).
# ML-2 cells = assay: as above; type: cell-based; details: Homo sapiens, 96 h; ML-2, acute myeloid leukemia, 4 days
# Experimental: as §1, §2, §3
# MOLM-14 cells = assay: as above; type: cell-based; details: Homo sapiens, 96 h; MOLM-14, acute myeloid leukemia, 4 days
# Experimental: as §1, §2, §3
# LNCaP cells = assay: as above; type: cell-based; details: Homo sapiens, 96 h, prostate carcinoma, 4 days
# Experimental: as §1, §2, §3
# HCT116 cells = assay: as above; type: cell-based; details: Homo sapiens, HCT-116, 96 h; HCT116, colorectal carcinoma, 4 days
# Experimental: as §1, §2, §3
# OCI-AML-5 cells = assay: as above; type: cell-based; details: Homo sapiens, 96 h; OCI-AML-5, acute myeloid leukemia, 4 days
# Experimental: as §1, §2, §3
# MV-4;11 cells = assay: as above; type: cell-based; details: Homo sapiens, MV4-11, 96 h, 11, acute biphenotypic B myelomonocytic leukemia, 4 days
# Experimental: as §1, §2, §3
# SIG-M5 cells = assay: as above; type: cell-based; details: Homo sapiens, 96 h; SIG-M5, acute myeloid leukemia, 4 days
# Experimental: as §1, §2, §3
# MOLM-13 cells = assay: as above; type: cell-based; details: Homo sapiens, 96 h; MOLM-13, acute myeloid leukemia, 4 days
# Experimental: as §1, §2, §3
# RS4;11 cells = assay: as above; type: cell-based; details: Homo sapiens, 96 h; RS4; 11, precursor cell lymphoblastic leukemia, 4 days; read-out: IC50
# Experimental: as §1, §2, §3
# OCI-AML-2 cells = assay: as above; type: cell-based; details: Homo sapiens, OCI-AML2, 96 h; OCI-AML-2, acute myeloid leukemia, 4 days
# Experimental: as §1, §2, §3
# p53 protein [2] = assay: Western blot analysis in 22RV1 cells, p53; type: cell-based, human; details: 2 hr treatment
# Experimental: (§4) 22RV1 cells were treated with Cpd. No. 4 and Cpd. D (MDM2 degraders) or with Cpd. A (MDM2 inhibitor) for 2 hr. MDM2 and p53 proteins were probed using specific antibodies. GAPDH was used as the loading control. […] No. 4 and Cpd. D reduce MDM2 protein and increase p53 protein level, and that Cpd. A increases MDM2 and p53 protein levels in 22RV1 cells.
# MDM2 protein [3] = target: T1, MDM2 protein (Homo sapiens, UniProt Q00987); assay: Western blot analysis in 22RV1 cells, MDM2; type: cell-based; design: endogenous in cells; details: 2 hr treatment
# T1 sequence (Q00987 whole entry): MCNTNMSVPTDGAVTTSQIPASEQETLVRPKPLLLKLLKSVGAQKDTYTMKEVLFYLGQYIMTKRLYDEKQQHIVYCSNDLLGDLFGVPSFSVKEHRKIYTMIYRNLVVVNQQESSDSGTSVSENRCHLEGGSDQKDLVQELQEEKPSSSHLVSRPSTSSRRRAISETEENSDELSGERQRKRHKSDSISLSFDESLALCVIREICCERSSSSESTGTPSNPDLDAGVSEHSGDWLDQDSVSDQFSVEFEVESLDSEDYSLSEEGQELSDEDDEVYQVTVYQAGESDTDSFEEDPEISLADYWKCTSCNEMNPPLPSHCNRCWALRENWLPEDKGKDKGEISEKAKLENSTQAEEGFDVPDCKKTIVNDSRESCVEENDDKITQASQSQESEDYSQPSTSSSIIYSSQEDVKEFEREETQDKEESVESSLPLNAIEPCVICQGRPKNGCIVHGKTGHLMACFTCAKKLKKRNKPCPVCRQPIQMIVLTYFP
# Experimental: as §4
# [4] = Pharmacokinetics in mice, oral and IV; type: in vivo; details: for F: PO 50 mg/kg vs IV 10 mg/kg; for AUC: mouse, in vivo
# Experimental: The pharmacokinetics of Cpd. Nos. 4 and 6, and Cpd. D were evaluated in mice.
# MDM2 protein [5] = target: T1, MDM2 protein; assay: Western blot analysis in RS4;11 cells, MDM2; type: cell-based; design: No. 4 and Cpd; No. 6 (MDM2 degraders); endogenous in cells; host or cells: RS4;11; details: 2 hr treatment
# Experimental: (§5) RS4;11 cells were treated with Cpd. No. 4 and Cpd. No. 6 (MDM2 degraders) or with Cpd. B and Cpd. C (MDM2 inhibitors) for 2 hr. MDM2 and p53 proteins were probed using specific antibodies. GAPDH was used as the loading control. […] No. 4 and Cpd. No. 6 reduce MDM2 protein and increase p53 protein level, and that Cpd. B and Cpd. C increase MDM2 and p53 protein levels in RS4;11 cells. The structures of Cpd. B (see Compound Example No. 24 of U.S. Pat. No. 8,629,141) and Cpd.
# p53 protein [6] = assay: Western blot analysis in RS4;11 cells, p53; type: cell-based, human; details: 2 hr treatment
# Experimental: as §5
# [7] = read-out: Plasma concentration, Average / Mean
# [8] = read-out: Plasma concentration, Mouse 1
# [9] = read-out: Plasma concentration, Mouse 2
Structure (SMILES),"concentration at 1 h [1, 7]","concentration at 1 h [1, 8]","concentration at 1 h [1, 9]","concentration at 3 h [1, 7]","concentration at 3 h [1, 8]","concentration at 3 h [1, 9]","concentration at 6 h [1, 7]","concentration at 6 h [1, 8]","concentration at 6 h [1, 9]",IC50 (22RV1 cells),IC50 (ML-2 cells),IC50 (MOLM-14 cells),IC50 (LNCaP cells),IC50 (HCT116 cells),IC50 (OCI-AML-5 cells),IC50 (MV-4;11 cells),IC50 (SIG-M5 cells),IC50 (RS4;11 cells),MDM2 protein level (MDM2 protein [5]),p53 protein level (p53 protein [6]),further results
"O=C1CCC(N2Cc3c(C#CC4CCN(C(=O)c5ccc(NC(=O)[C@@H]6NC7(CCCCC7)[C@@]7(C(=O)Nc8cc(Cl)ccc87)[C@H]6c6cccc(Cl)c6F)cc5)CC4)cccc3C2=O)C(=O)N1 (stereo partly shown) [Cpd. D, reference compound]",77.9 ng/mL,78 ng/mL,77.8 ng/mL,624 ng/mL,510 ng/mL,738 ng/mL,414 ng/mL,234 ng/mL,594 ng/mL,45 nM,11 nM,78 nM,33 nM,400 nM,150 nM,10 nM,110 nM,2.9 nM,,,"IC50 (MOLM-13 cells): 34 nM; IC50 (OCI-AML-2 cells): 110 nM; p53 protein level (p53 protein [2]): increase; MDM2 protein level (MDM2 protein [3]): reduce; F [4]: 1.27%; AUC ([4]; IV, 10 mg/kg): 193000 ng·h/mL; AUC ([4]; PO, 50 mg/kg): 12300 ng·h/mL"
"O=C(O)c1ccc(NC(=O)[C@@H]2NC3(CCCCC3)[C@@]3(C(=O)Nc4cc(Cl)ccc43)[C@H]2c2cccc(Cl)c2F)cc1 [Cpd. A, reference compound]",,,,,,,,,,1330 nM,,,,,,,,138 nM,,,p53 protein level (p53 protein [2]): increases; MDM2 protein level (MDM2 protein [3]): increases
"O=C(NC12CCC(C(=O)O)(CC1)CC2)[C@@H]1NC2(CCCCC2)[C@@]2(C(=O)Nc3cc(Cl)ccc32)[C@H]1c1cccc(Cl)c1F [Cpd. C, reference compound]",,,,,,,,,,,,,,,,,,,increase,increase,
"O=C1CCC(N2Cc3c(C#CC4CCN(C(=O)C56CCC(NC(=O)[C@@H]7NC8(CCCCC8)[C@@]8(C(=O)Nc9cc(Cl)ccc98)[C@H]7c7cccc(Cl)c7F)(CC5)CC6)CC4)cccc3C2=O)C(=O)N1 (stereo partly drawn) [Cpd. No. 6, (3′R,4′S,5′R)-6″-chloro-4′-(3-chloro-2-fluorophenyl)-N-(4-(4-((2-(2,6-dioxopiperidin-3-yl)-1-oxoisoindolin-4-yl)ethynyl)piperidine-1-carbonyl)bicyclo[2.2.2]octan-1-yl)-2″-oxodispiro[cyclohexane-1,2′-pyrrolidine-3′,3″-indoline]-5′-carboxamide]",0.42 ng/mL,0.576 ng/mL,0.257 ng/mL,3220 ng/mL,3110 ng/mL,3330 ng/mL,2380 ng/mL,2320 ng/mL,2430 ng/mL,42 nM,4.9 nM,25 nM,13 nM,310 nM,71 nM,6.4 nM,63 nM,2.4 nM,reduce,increase,"IC50 (MOLM-13 cells): 18 nM; IC50 (OCI-AML-2 cells): 69 nM; F [4]: 5.7%; AUC ([4]; IV, 10 mg/kg): 154000 ng·h/mL; AUC ([4]; PO, 50 mg/kg): 43500 ng·h/mL"
"O=C1CCC(N2Cc3c(C#CC4CCN(C(=O)[C@H]5CC[C@H](NC(=O)[C@@H]6NC7(CCCCC7)[C@@]7(C(=O)Nc8cc(Cl)ccc87)[C@H]6c6cccc(Cl)c6F)CC5)CC4)cccc3C2=O)C(=O)N1 (stereo partly drawn) [Cpd. No. 4, (3′R,4′S,5′R)-6″-chloro-4′-(3-chloro-2-fluorophenyl)-N-((1r,4R)-4-(4-((2-(2,6-dioxopiperidin-3-yl)-1-oxoisoindolin-4-yl)ethynyl)piperidine-1-carbonyl)cyclohexyl)-2″-oxodispiro[cyclohexane-1,2′-pyrrolidine-3′,3″-indoline]-5′-carboxamide]",0.62 ng/mL,0.231 ng/mL,1.01 ng/mL,1320 ng/mL,902 ng/mL,1730 ng/mL,338 ng/mL,231 ng/mL,446 ng/mL,14 nM,1.2 nM,7.8 nM,3.2 nM,86 nM,23 nM,2.3 nM,21 nM,0.72 nM,reduce,increase,"IC50 (MOLM-13 cells): 5.1 nM; IC50 (OCI-AML-2 cells): 21 nM; p53 protein level (p53 protein [2]): increase; MDM2 protein level (MDM2 protein [3]): reduce; F [4]: 0.93%; AUC ([4]; IV, 10 mg/kg): 156000 ng·h/mL; AUC ([4]; PO, 50 mg/kg): 7250 ng·h/mL"
"O=C(N[C@H]1CC[C@H](C(=O)O)CC1)[C@@H]1NC2(CCCCC2)[C@@]2(C(=O)Nc3cc(Cl)ccc32)[C@H]1c1cccc(Cl)c1F [Cpd. B, reference compound]",,,,,,,,,,,,,,,,,,,increase,increase,
